Structures are written as SMILES. Where only a bound is given, the exact number is not on record here.

For the assay, the target named is T1, human HSD17β13 (stable HEK293T cell line overexpressing human HSD17β13) (Homo sapiens, UniProt Q7Z5P4).
T1 construct: expressed in transfected cells
T1 sequence (Q7Z5P4 20-300): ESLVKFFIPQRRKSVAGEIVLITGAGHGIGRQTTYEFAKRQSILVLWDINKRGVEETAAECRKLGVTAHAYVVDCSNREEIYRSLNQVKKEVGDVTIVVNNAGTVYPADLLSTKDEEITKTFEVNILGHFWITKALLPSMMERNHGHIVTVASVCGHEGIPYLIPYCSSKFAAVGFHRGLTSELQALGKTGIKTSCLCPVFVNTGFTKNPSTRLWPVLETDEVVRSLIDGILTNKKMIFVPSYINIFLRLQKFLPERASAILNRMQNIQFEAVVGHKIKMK
The assay is described as follows: HSD17β13 inhibitor cell-based screening assay (conversion of estradiol-d2 to estrone-d2 by RF-MS). The conditions noted are these: conversion of estradiol-d2 to estrone-d2 after 24 hours. The method, boiled down: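 Cellular IC50 is based on 24-h conversion of estradiol-d2 (5 μM final) to estrone-d2, measured by RF-MS in acetonitrile-precipitated supernatants. Assay uses human HSD17β13-overexpressing HEK293T cells (7.5E3/well, 1% charcoal/dextran FBS MEM), with compounds dosed as a 9-point 1:3 series to 10 μM final. ATPlite luminescence on overexpressing and parent lines measured viability.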
Usually IC50 stands for the midpoint of a concentration-inhibition curve. The molecule `COc1ccc(-c2nc3sc4c(O)c(Cl)ccc4c3c(=O)n2Cc2cnc(C3CC3)o2)c(C2CC2)c1` [Example 49, 7-chloro-2-(2-cyclopropyl-4-methoxyphenyl)-3-((2-cyclopropyloxazol-5-yl)methyl)-8-hydroxybenzo[4,5]thieno[2,3-d]pyrimidin-4(3H)-one] returned an IC50 of less than 100 nM. `COc1ccc(-c2nc3sc4c(O)c(Cl)ccc4c3c(=O)n2Cc2cn(C(F)F)nn2)c(C2CC2)c1` [Example 129]: the IC50 is less than 100 nM. `O=c1c2c(nc(-c3sc4ccccc4c3C3CC3)n1Cc1cnco1)sc1c(O)c(Cl)ccc12` [Example 158] returned an IC50 of less than 100 nM. For the molecule `O=c1c2c(nc(-c3cc(F)c(F)cc3C3CC3)n1Cc1nncs1)sc1c(O)c(Cl)ccc12` [Example 209], the IC50 was less than 100 nM. As to `Cn1ncc2cc(-c3nc4sc5c(O)c(Cl)ccc5c4c(=O)n3Cc3cc(C(F)(F)F)no3)c(C3CC3)cc21` [Example 164], the IC50 is less than 100 nM. Molecule `Cn1cc(Cn2c(-c3ccc(S(C)(=O)=O)cc3C3CC3)nc3sc4c(O)c(Cl)ccc4c3c2=O)ccc1=O` [Example 70, 7-chloro-2-(2-cyclopropyl-4-(methylsulfonyl)phenyl)-8-hydroxy-3-((1-methyl-6-oxo-1,6-dihydropyridin-3-yl)methyl)benzo[4,5]thieno[2,3-d]pyrimidin-4(3H)-one] yielded an IC50 of less than 100 nM. In turn, `O=c1c2c(nc(-c3ccccc3C3CC3)n1Cc1cnco1)sc1c(O)c(Cl)ccc12` [Example 87] displayed an IC50 of less than 100 nM. `COc1ccc(-c2nc3sc4c(O)c(Cl)ccc4c3c(=O)n2Cc2cnc(C(F)F)s2)c(C2CC2)c1` [Example 197] came in with an IC50 of less than 100 nM.

`N#Cc1ccc(-c2nc3sc4c(O)c(Cl)ccc4c3c(=O)n2Cc2cnco2)c(C2CC2)c1` [Example 111, 4-(7-chloro-8-hydroxy-3-(oxazol-5-ylmethyl)-4-oxo-3,4-dihydrobenzo[4,5]thieno[2,3-d]pyrimidin-2-yl)-3-cyclopropylbenzonitrile] displayed an IC50 of less than 100 nM. As to `CS(=O)(=O)c1ccc(-c2nc3sc4c(O)c(Cl)ccc4c3c(=O)n2Cc2cc(C(F)(F)F)no2)c(C2CC2)c1` [Example 81], the concentration for half-maximal inhibition (IC50) is less than 100 nM. For `COCc1cc(Cn2c(-c3cc(F)c(F)cc3C3CC3)nc3sc4c(O)c(Cl)ccc4c3c2=O)on1` [Example 208], the IC50 is less than 100 nM.

On to `O=c1c2c(nc(-c3ccc(-c4ncco4)cc3C3CC3)n1Cc1cnco1)sc1c(O)c(Cl)ccc12` [Example 110, 7-chloro-2-(2-cyclopropyl-4-(oxazol-2-yl)phenyl)-8-hydroxy-3-(oxazol-5-ylmethyl)benzo[4,5]thieno[2,3-d]pyrimidin-4(3H)-one], for which the IC50 is less than 100 nM. The molecule `O=c1c2c(nc(-c3cnc(C(F)(F)F)cc3C3CC3)n1Cc1cc(C(F)(F)F)no1)sc1c(O)c(Cl)ccc12` [Example 173] came in with an IC50 of less than 100 nM. Take `CS(=O)(=O)c1cnc(-c2nc3sc4c(O)c(Cl)ccc4c3c(=O)n2Cc2cc(C(F)(F)F)no2)c(C2CC2)c1` [Example 112, 7-chloro-2-(3-cyclopropyl-5-(methylsulfonyl)pyridin-2-yl)-8-hydroxy-3-((3-(trifluoromethyl)isoxazol-5-yl)methyl)benzo[4,5]thieno[2,3-d]pyrimidin-4(3H)-one]: the IC50 was less than 100 nM. Then `N#Cc1cnc(-c2nc3sc4c(O)c(Cl)ccc4c3c(=O)n2Cc2cc(C(F)(F)F)no2)c(C2CC2)c1` [Example 115], with less than 100 nM; and `COCCOc1ccc(-c2nc3sc4c(O)c(Cl)ccc4c3c(=O)n2Cc2cnco2)c(C2CC2)c1` [Example 74], with less than 100 nM; and `O=c1c2c(nc(-c3cc(F)c(F)cc3C3CC3)n1Cc1cn[nH]c1)sc1c(O)c(Cl)ccc12` [Example 215], with less than 100 nM. As to `CS(=O)(=O)Nc1ccc(-c2nc3sc4c(O)c(Cl)ccc4c3c(=O)n2Cc2cnc(C(F)(F)F)nc2)c(C2CC2)c1` [Example 185], the half-maximal inhibitory concentration (IC50) was less than 100 nM. Consider `CCn1c(=O)c(C)cn(CCn2c(-c3ccc(OC)cc3C3CC3)nc3sc4c(O)c(Cl)ccc4c3c2=O)c1=O` [Example 150], for which the IC50 lay in the range of 500 to 1000 nM. As for `Cc1cc(C2CC2)c(-c2nc3sc4c(O)c(Cl)ccc4c3c(=O)n2Cc2cnco2)s1` [Example 94], the IC50 was less than 100 nM. In the case of `N#Cc1ccc(-c2nc3sc4c(O)c(Cl)ccc4c3c(=O)n2Cc2ccc(C(F)(F)F)nc2)c(C2CC2)c1` [Example 113, 4-(7-chloro-8-hydroxy-4-oxo-3-((6-(trifluoromethyl)pyridin-3-yl)methyl)-3,4-dihydrobenzo[4,5]thieno[2,3-d]pyrimidin-2-yl)-3-cyclopropylbenzonitrile], the IC50 is less than 100 nM. The molecule `O=c1c2c(nc(-c3cc(F)c(F)cc3C3CC3)n1Cc1cc(C(F)F)no1)sc1c(O)c(Cl)ccc12` [Example 65, 7-chloro-2-(2-cyclopropyl-4,5-difluorophenyl)-3-((3-(difluoromethyl)isoxazol-5-yl)methyl)-8-hydroxybenzo[4,5]thieno[2,3-d]pyrimidin-4(3H)-one] came in with an IC50 of less than 100 nM. The figure for `Cn1ncc2cc(C3CC3)c(-c3nc4sc5c(O)c(Cl)ccc5c4c(=O)n3Cc3cnco3)cc21` [Example 194] is 500 to 1000 nM; for `COc1ccc(-c2nc3sc4c(O)c(Cl)ccc4c3c(=O)n2C[C@@H]2CC(=O)N(C)C2)c(C2CC2)c1` [Example 88] it is less than 100 nM. The molecule `Cn1cc2cc(C3CC3)c(-c3nc4sc5c(O)c(Cl)ccc5c4c(=O)n3Cc3cnco3)cc2n1` [Example 195] registered an IC50 of less than 100 nM. The figure for `O=c1c2c(nc(-c3cc(C(F)(F)F)ccc3C3CC3)n1Cc1cnco1)sc1c(O)c(Cl)ccc12` [Example 136] is less than 100 nM; for `C/C=C/c1cc2cn[nH]c2cc1-c1nc2sc3c(O)c(Cl)ccc3c2c(=O)n1Cc1cnco1` [Example 206] it is 100 to 500 nM; for `COc1ccc(-c2nc3sc4c(O)c(Cl)ccc4c3c(=O)n2Cc2cnc(C)o2)c(C2CC2)c1` [Example 59, 7-chloro-2-(2-cyclopropyl-4-methoxyphenyl)-8-hydroxy-3-((2-methyloxazol-5-yl)methyl)benzo[4,5]thieno[2,3-d]pyrimidin-4(3H)-one] it is less than 100 nM. Regarding `COc1ccc(-c2nc3sc4c(O)c(Cl)ccc4c3c(=O)n2Cc2cncc(C(F)(F)F)c2)c(C2CC2)c1` [Example 154], the IC50 is less than 100 nM.

The molecule `N#Cc1ccc(-c2nc3sc4c(O)c(Cl)ccc4c3c(=O)n2Cc2cnc(C(F)(F)F)nc2)c(C2CC2)c1` [Example 114] returned an IC50 of less than 100 nM.

In the case of `COc1ccc(-c2nc3sc4c(O)c(Cl)ccc4c3c(=O)n2CC(=O)NCCO)c(C2CC2)c1` [Example 51, 2-(7-chloro-2-(2-cyclopropyl-4-methoxyphenyl)-8-hydroxy-4-oxobenzo[4,5]thieno[2,3-d]pyrimidin-3(4H)-yl)-N-(2-hydroxyethyl)acetamide], the IC50 is 500 to 1000 nM. As for `Cn1cc(Cn2c(-c3cc(F)c(F)cc3C3CC3)nc3sc4c(O)c(Cl)ccc4c3c2=O)cn1` [Example 216], the IC50 is less than 100 nM.

In the case of `COc1cc(-c2nc3sc4c(O)c(Cl)ccc4c3c(=O)n2Cc2cnco2)c(C2CC2)cc1OC` [Example 118], the IC50 fell in the range of 100 to 500 nM.

As to `COc1ccc(-c2nc3sc4c(O)c(Cl)ccc4c3c(=O)n2Cc2sc(C)nc2C)c(C2CC2)c1` [Example 53, 7-chloro-2-(2-cyclopropyl-4-methoxyphenyl)-3-((2,4-dimethylthiazol-5-yl)methyl)-8-hydroxybenzo[4,5]thieno[2,3-d]pyrimidin-4(3H)-one], the IC50 was less than 100 nM.

These data come from US20250154163A1, “Pyrimidinone-Containing 17-Beta-Hydroxysteroid Dehydrogenase Type 13 Inhibitors” (ENANTA PHARMACEUTICALS, INC., priority 2023, published 2025).
